From patent US6420438B1, “1-amino-7-isoquinoline derivatives as serine protease inhibitors” (Tularik Limited, priority 1998, dated 2002)

Molecular target: T1, human factor Xa (Homo sapiens, UniProt P00742)
T1 construct: Purified human factor Xa; purchased Alexis Corporation, Nottingham, UK
Test: Enzyme inhibition assay, chromogenic substrate pefachrome-FXA
Type: biochemical
Conditions: room temperature, 0.1M phosphate buffer, pH7.4

T1 sequence (P00742 235-488 limits assumed): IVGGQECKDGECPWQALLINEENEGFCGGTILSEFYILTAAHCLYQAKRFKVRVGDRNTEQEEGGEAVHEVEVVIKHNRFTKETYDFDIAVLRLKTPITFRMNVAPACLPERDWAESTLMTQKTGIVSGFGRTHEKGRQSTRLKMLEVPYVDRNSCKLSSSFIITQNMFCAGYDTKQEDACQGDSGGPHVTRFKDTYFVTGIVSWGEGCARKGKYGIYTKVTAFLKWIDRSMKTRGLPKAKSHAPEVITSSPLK
T1 sequence (P00742 41-179 partner limits assumed): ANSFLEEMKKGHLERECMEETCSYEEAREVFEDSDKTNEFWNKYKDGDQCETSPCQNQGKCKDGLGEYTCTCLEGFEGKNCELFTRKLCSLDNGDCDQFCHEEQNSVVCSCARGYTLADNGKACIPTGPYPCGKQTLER

Ki [µM]	SMILES
155	N=C(N)c1ccccc1 [benzamidine]
0.008	CN1CCC(C2CCN(C(=O)[C@H](NC(=O)c3ccc4ccnc(N)c4c3)c3ccccc3)CC2)CC1 [Example 75, 1-Aminoisoquinolin-7-oyl-D-phenylglycine-4,4′-(1′-methyl)bipiperidinamide]
